# Test results from patent US10597390B2, “Indoles for use in influenza virus infection” (Janssen Sciences Ireland UC, priority 2014, dated 2020).
# Assays:
# [1] = test system: influenza virus A/Taiwan/1/86 (H1N1); assay: organism not typed; format: cell-based; conditions: MDCK, 72 h, CPE in MDCK cells, three days post-virus exposure, ATPlite
# in vitro = conditions: dog, TOX MDCK CC50
Compound,IC50 [1] [nM],melting point [°C],CC50 at 3 days (in vitro) [nM]
Cn1nnnc1C(=O)N[C@@H]1CCC[C@H](Nc2nc(-c3c[nH]c4c(F)cc(F)cc34)ncc2F)C1 [Compound 152],40,250.3,> 5000
Cn1nnc(C(=O)N[C@@H]2CCC[C@H](Nc3nc(-c4c[nH]c5c(F)cc(F)cc45)ncc3F)C2)n1 [Compound 153],20,230,> 1000
O=C(N[C@@H]1CCC[C@H](Nc2nc(-c3c[nH]c4c(F)cc(F)cc34)ncc2F)C1)c1cscn1 [Compound 154],2,266.8,15900
O=C(N[C@@H]1CCC[C@H](Nc2nc(-c3c[nH]c4c(F)cc(F)cc34)ncc2F)C1)c1csc(C(=O)O)n1 [Compound 155],3,260.8,> 22800
Cn1ncc(C(=O)N[C@@H]2CCC[C@H](Nc3nc(-c4c[nH]c5c(F)cc(F)cc45)ncc3F)C2)c1N [Compound 156],0.8,248.7,8500
COc1ccnc(C(=O)N[C@@H]2CCC[C@H](Nc3nc(-c4c[nH]c5c(F)cc(F)cc45)c(C#N)cc3F)C2)c1 [Compound 161],3,285.5,> 25000
Cc1cc(F)c2[nH]cc(-c3ncc(F)c(N[C@H]4C5CCC(CC5)[C@@H]4C(=O)O)n3)c2c1 [Compound 166],6,98,1000
Cc1cc(F)c2[nH]cc(-c3ncc(F)c(N[C@H](CC(=O)O)C(C)(C)C)n3)c2c1 [Compound 168],> 25000,132,10300
Cc1cc(F)c2[nH]cc(-c3ncc(F)c(N[C@@H](CC(=O)O)C(C)(C)C)n3)c2c1 [Compound 169],19,144,2300
N#Cc1cc(F)c2[nH]cc(-c3ncc(F)c(N[C@H]4C5CCC(CC5)[C@@H]4C(=O)O)n3)c2c1 [Compound 171],6,211.6,700
N#Cc1cc(F)c2[nH]cc(-c3ncc(F)c(N[C@H]4CCC[C@@H](NC(=O)c5c[nH]nn5)C4)n3)c2c1 [Compound 172],2,> 300,> 25000
N#Cc1cc(F)c(N[C@@H]2CCC[C@@H](NC(=O)c3ccccn3)C2)nc1-c1c[nH]c2c(F)cc(F)cc12 [Compound 209],3,257,> 25000
N#Cc1cc(F)c(N[C@@H]2CCC[C@H](NC(=O)[C@@H](O)c3ccccc3)C2)nc1-c1c[nH]c2c(F)cc(F)cc12 [Compound 214],670,255,2900
CC(C)(C)[C@H](CC(=O)O)Nc1nc(-c2c[nH]c3c(F)cc(F)cc23)c(C#N)cc1F [Compound 218],3,> 280,240
O=C(O)c1cccnc1C(=O)N[C@@H]1CCC[C@H](Nc2nc(-c3c[nH]c4c(F)cc(F)cc34)ncc2F)C1 [Compound 225],9,265.2,> 5000
"CC(C)(c1cccs1)C(CC(=O)O)Nc1nc(-c2c[nH]c3c(F)cc(F)cc23)c(C#N)cc1F (stereo not drawn) [Compound 229, 3-((5-cyano-6-(5,7-difluoro-1H-indol-3-yl)-3-fluoropyridin-2-yl)amino)-4-methyl-4-(thiophen-2-yl)pentanoic Acid]",18,235.7,200

Compound,IC50 [1] [nM],melting point [°C],CC50 at 3 days (in vitro) [nM]
CC(C)(c1cccs1)[C@H](CC(=O)O)Nc1nc(-c2c[nH]c3c(F)cc(F)cc23)ncc1F [Compound 231],10,271.1,2600
CC(C)(c1nccs1)C(CC(=O)O)Nc1nc(-c2c[nH]c3c(F)cc(F)cc23)c(C#N)cc1F (stereo not drawn) [Compound 232],3,223.6,300
Cc1cc(F)c2[nH]cc(-c3ncc(F)c(NC(CC(=O)O)C(C)(C)c4nccs4)n3)c2c1 (stereo not drawn) [Compound 233],15,237.2,17300
Cc1cc(F)c2[nH]cc(-c3ncc(F)c(NC(CC(=O)O)C(C)(C)c4ccn(C)n4)n3)c2c1 (stereo not drawn) [Compound 234],460,208.5,> 25000
Cc1cc(F)c2[nH]cc(-c3ncc(F)c(N[C@@H](CC(=O)O)C(C)(C)c4ccn(C)n4)n3)c2c1 [Compound 235],190,> 260,> 25000
Cn1ccc(C(C)(C)C(CC(=O)O)Nc2nc(-c3c[nH]c4c(F)cc(F)cc34)c(C#N)cc2F)n1 (stereo not drawn) [Compound 236],86,246.9,1500
"CC(C)(c1ccccn1)C(CC(=O)O)Nc1nc(-c2c[nH]c3c(F)cc(F)cc23)c(C#N)cc1F (stereo not drawn) [Compound 237, 3-((5-cyano-6-(5,7-difluoro-1H-indol-3-yl)-3-fluoropyridin-2-yl)amino)-4-methyl-4-(pyridin-2-yl)pentanoic Acid]",3,230.8,400
Cc1cc(F)c2[nH]cc(-c3ncc(F)c(N[C@@H](CC(=O)O)C(C)(C)c4ccccn4)n3)c2c1 [Compound 239],10,219,15300
"COC(C)(C)C(CC(=O)O)Nc1nc(-c2c[nH]c3c(F)cc(F)cc23)c(C#N)cc1F (stereo not drawn) [Compound 240, 3-((5-cyano-6-(5,7-difluoro-1H-indol-3-yl)-3-fluoropyridin-2-yl)amino)-4-methoxy-4-methylpentanoic Acid]",47,218.8,900
"C=CCC(C)(C)C(CC(=O)O)Nc1nc(-c2c[nH]c3c(F)cc(F)cc23)c(C#N)cc1F (stereo not drawn) [Compound 241, 3-((5-cyano-6-(5,7-difluoro-1H-indol-3-yl)-3-fluoropyridin-2-yl)amino)-4,4-dimethylhept-6-enoic Acid]",12,> 260,50
C=CCC(C)(C)[C@@H](CC(=O)O)Nc1nc(-c2c[nH]c3c(F)cc(C)cc23)ncc1F [Compound 243],46,< 280,600
"CC1(C(CC(=O)O)Nc2nc(-c3c[nH]c4c(F)cc(F)cc34)c(C#N)cc2F)CCCC1 (stereo not drawn) [Compound 244, 3-((5-cyano-6-(5,7-difluoro-1H-indol-3-yl)-3-fluoropyridin-2-yl)amino)-3-(1-methylcyclopentyl)propanoic Acid]",5,150,60
CC1([C@@H](CC(=O)O)Nc2nc(-c3c[nH]c4c(F)cc(F)cc34)c(C#N)cc2F)CCCC1 [Compound 245],3,289.6,700
CC1(C(CC(N)=O)Nc2nc(-c3c[nH]c4c(F)cc(F)cc34)c(C#N)cc2F)CCCC1 (stereo not drawn) [Compound 246],610,270.1,6900
CC(=O)NCc1cc(F)c(N[C@@H]2CCC[C@H](NC(=O)N3CCCC3)C2)nc1-c1c[nH]c2c(F)cc(F)cc12 [Compound 248],50,< 260,> 25000
